Results published in patent US9943529B2, “Methods for reducing cellular proliferation and treating certain diseases” (BRIGHAM YOUNG UNIVERSITY, priority 2013, dated 2018).

Experiments:
A549/ATCC [1] = assay: cells; conditions: Homo sapiens, A549, 48 h
ACHN [2] = conditions: 48 hours, five 10-fold dilutions starting from 100 μM
SK-MEL-2 = conditions: 48 hours, five 10-fold dilutions starting from 100 μM
PC-3 = assay: cells; conditions: Homo sapiens, PC-3, 48 h
SNB-75 [3] = conditions: 48 hours, five 10-fold dilutions starting from 100 μM
RXF 393 = conditions: 48 hours, five 10-fold dilutions starting from 100 μM
UACC-257 = conditions: 48 hours, five 10-fold dilutions starting from 100 μM
NCI-H460 = assay: cells; conditions: Homo sapiens, NCI-H460, 48 h
U251 = assay: cells; conditions: Homo sapiens, U-251, 48 h
TK-10 = conditions: 48 hours, five 10-fold dilutions starting from 100 μM
SNB-75 [4] = assay: cells; conditions: Homo sapiens, SNB-75, 48 h
DU-145 = conditions: 48 hours, five 10-fold dilutions starting from 100 μM
EKVX = assay: cells; conditions: Homo sapiens, 48 h
M14 [5] = assay: cells; conditions: Homo sapiens, M14, 48 h
T-47D = conditions: 48 hours, five 10-fold dilutions starting from 100 μM
RPMI-8226 = assay: NCI screen antiproliferative activity, sulforhodamine B, Leukemia panel; format: cell-based, human; conditions: 48 hours, five 10-fold dilutions starting from 100 μM
MDA-MB-435 = conditions: 48 hours, five 10-fold dilutions starting from 100 μM
UACC-62 [6] = conditions: 48 hours, five 10-fold dilutions starting from 100 μM
SN12C = assay: cells; conditions: Homo sapiens, 48 h
COLO 205 = assay: NCI screen antiproliferative activity, sulforhodamine B, Colon Cancer panel; format: cell-based, human; conditions: 48 hours, five 10-fold dilutions starting from 100 μM
NCI-ADR-RES [7] = assay: cells; conditions: Homo sapiens, 48 h
SF-295 = conditions: 48 hours, five 10-fold dilutions starting from 100 μM
UO-31 = assay: cells; conditions: Homo sapiens, UO-31, 48 h
OVCAR-3 = conditions: 48 hours, five 10-fold dilutions starting from 100 μM
SR = assay: NCI screen antiproliferative activity, sulforhodamine B, Leukemia panel; format: cell-based, human; conditions: 48 hours, five 10-fold dilutions starting from 100 μM
IGROV1 = conditions: 48 hours, five 10-fold dilutions starting from 100 μM
OVCAR-4 = assay: cells; conditions: Homo sapiens, OVCAR-4, 48 h
SF-268 = assay: cells; conditions: Homo sapiens, SF-268, 48 h
ACHN [8] = assay: cells; conditions: Homo sapiens, 48 h
UACC-62 [9] = assay: cells; conditions: Homo sapiens, UACC-62, 48 h
A549/ATCC [10] = conditions: 48 hours, five 10-fold dilutions starting from 100 μM
M14 [11] = conditions: 48 hours, five 10-fold dilutions starting from 100 μM
OVCAR-5 = assay: cells; conditions: Homo sapiens, OVCAR-5, 48 h
SF-539 = assay: cells; conditions: Homo sapiens, SF-539, 48 h
MCF7 = assay: cells; conditions: Homo sapiens, MCF7, 48 h
BT-549 = assay: cells; conditions: Homo sapiens, BT-549, 48 h
NCI-H23 = assay: cells; conditions: Homo sapiens, NCI-H23, 48 h
K-562 = assay: NCI screen antiproliferative activity, sulforhodamine B, Leukemia panel; format: cell-based, human; conditions: five 10-fold dilutions starting from 100 μM
SK-MEL-28 = assay: cells; conditions: Homo sapiens, SK-MEL-28, 48 h
MOLT-4 = assay: NCI screen antiproliferative activity, sulforhodamine B, Leukemia panel; format: cell-based, human; conditions: 48 hours, five 10-fold dilutions starting from 100 μM
NCI-ADR-RES [12] = conditions: 48 hours, five 10-fold dilutions starting from 100 μM
HCT-15 = assay: cells; conditions: Homo sapiens, HCT-15, 48 h
HOP-92 = assay: cells; conditions: Homo sapiens, HOP-92, 48 h

`CCCCCCCCNCCC[C@@H](C)[C@H]1CC[C@H]2[C@@H]3[C@H](OCCCN)C[C@@H]4C[C@H](OCCCN)CC[C@]4(C)[C@H]3C[C@H](OCCCN)[C@]12C` [CSA-13] was tested, and the GI50 (A549/ATCC [1]) was 2010 nM, the CC50 (A549/ATCC [1]; read-out: LC50) was 45.9 µM and the TGI (ACHN [2]) was 3.68 µM. The TGI (SK-MEL-2) was over 100 µM, the GI50 (PC-3) was 3.74 µM and the CC50 (PC-3; read-out: LC50) was over 100 µM. The TGI (SNB-75 [3]) was 5.93 µM, the TGI (RXF 393) was 15.6 µM and the TGI (UACC-257) was 9.00 µM. For the same compound, the GI50 (NCI-H460) was 1210 nM, the CC50 (NCI-H460; read-out: LC50) was 15.5 µM and the GI50 (U251) was 1370 nM. It also gave a CC50 (U251; read-out: LC50) of 6.81 µM, a TGI (TK-10) of 4.70 µM and a GI50 (SNB-75 [4]) of 1760 nM. The CC50 (SNB-75 [4]; read-out: LC50) was 57.2 µM, the TGI (DU-145) was 2.35 µM and the GI50 (EKVX) was 1320 nM. For the same compound, the CC50 (EKVX; read-out: LC50) was 8.62 µM, the GI50 (M14 [5]) was 1180 nM and the CC50 (M14 [5]; read-out: LC50) was 12.6 µM. For the same compound, the TGI (T-47D) was 7.13 µM, the TGI (RPMI-8226) was 0.911 µM and the GI50 (RPMI-8226; Homo sapiens) was 266 nM. It also gave a TGI (MDA-MB-435) of 1.46 µM, a TGI (UACC-62 [6]) of 2.29 µM and a GI50 (SN12C) of 571 nM. The CC50 (SN12C; read-out: LC50) was 27 µM, the TGI (COLO 205) was 3.02 µM and the GI50 (COLO 205; Homo sapiens) was 1270 nM. It also gave a GI50 (NCI-ADR-RES [7]) of 1830 nM, a CC50 (NCI-ADR-RES [7]; read-out: LC50) of 36.5 µM and a TGI (SF-295) of 2.66 µM. It also gave a GI50 (UO-31) of 1490 nM, a CC50 (UO-31; read-out: LC50) of over 100 µM and a TGI (OVCAR-3) of 14.8 µM. It also gave a TGI (SR) of 2.29 µM, a GI50 (SR; Homo sapiens) of 272 nM and a TGI (IGROV1) of 3.54 µM. For the same compound, the GI50 (OVCAR-4) was 5.51 µM, the CC50 (OVCAR-4; read-out: LC50) was 83 µM and the GI50 (SF-268) was 1500 nM. It also gave a CC50 (SF-268; read-out: LC50) of 9.14 µM, a GI50 (ACHN [8]) of 1480 nM and a CC50 (ACHN [8]; read-out: LC50) of 9.17 µM. For the same compound, the GI50 (UACC-62 [9]) was 482 nM, the CC50 (UACC-62 [9]; read-out: LC50) was 9.43 µM and the TGI (A549/ATCC [10]) was 9.33 µM. It also gave a TGI (M14 [11]) of 3.52 µM, a GI50 (OVCAR-5) of 1550 nM and a CC50 (OVCAR-5; read-out: LC50) of 58.4 µM. It also gave a GI50 (SF-539) of 318 nM, a CC50 (SF-539; read-out: LC50) of 4.89 µM and a GI50 (MCF7) of 1630 nM. For the same compound, the CC50 (MCF7; read-out: LC50) was 5.85 µM, the GI50 (BT-549) was 1070 nM and the CC50 (BT-549; read-out: LC50) was over 100 µM. For the same compound, the GI50 (NCI-H23) was 1240 nM, the CC50 (NCI-H23; read-out: LC50) was 7.87 µM and the TGI (K-562; 48 hours) was 2.47 µM. It also gave a GI50 (K-562; Homo sapiens, K562, 48 hours) of 1040 nM, a GI50 (SK-MEL-28) of 291 nM and a CC50 (SK-MEL-28; read-out: LC50) of 5.46 µM. The TGI (MOLT-4) was 2.93 µM, the GI50 (MOLT-4; Homo sapiens) was 1250 nM and the TGI (NCI-ADR-RES [12]) was 5.33 µM. The GI50 (HCT-15) was 2630 nM, the CC50 (HCT-15; read-out: LC50) was 63.9 µM and the GI50 (HOP-92) was 408 nM. For the same compound, the CC50 (HOP-92; read-out: LC50) was over 100 µM.
